Test system: NCIH929.1 cells
Experiment: Cell viability assay (CellTiter-Glo 2.0, ATP quantification)
Type: cell-based
Conditions: NCIH929.1 cell viability, CellTiter-Glo 2.0, 96 hr incubation, top concentration 1 μM
Procedure, shortened: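 Read-out is CellTiter-Glo 2.0 luminescence (ATP), after 96 h compound exposure at 37 °C, with a day-0 plate giving the CT0 baseline. Duplicate 10-point half-log titration from 1 μM applied to 750 cells/well in RPMI, 10% FBS, 0.05 mM 2-mercaptoethanol.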

| Structure (SMILES) | GI50 [nM] |
| --- | --- |
| CC1(C(=O)N2CCC(n3ncc(CNc4cccc5c4C(=O)N(C4CCC(=O)NC4=O)C5=O)c3Br)CC2)CCC1 (stereo not drawn) [Compound 188, 4-(((5-Bromo-1-(1-(1-methylcyclobutane-1-carbonyl)piperidin-4-yl)-1H-pyrazol-4-yl)methyl)amino)-2-(2,6-dioxopiperidin-3-yl)isoindoline-1,3-dione] | < 100 |
| CC(C)(C)OC(=O)N1CCC(n2ncc(CNc3cccc4c3C(=O)N(C3CCC(=O)NC3=O)C4=O)c2CC(=O)C2CC2)CC1 (stereo not drawn) [Compound 189, tert-Butyl 4-[5-(2-cyclopropyl-2-oxo-ethyl)-4-[[[2-(2,6-dioxo-3-piperidyl)-1,3-dioxo-isoindolin-4-yl]amino]methyl]pyrazol-1-yl]piperidine-1-carboxylate] | < 100 |
| CC1(C(=O)N2CCC(n3ncc(CNc4cccc5c4C(=O)N(C4CCC(=O)NC4=O)C5=O)c3C#CC3CC3)CC2)CCC1 (stereo not drawn) [Compound 190, 4-(((5-(Cyclopropylethynyl)-1-(1-(1-methylcyclobutane-1-carbonyl)piperidin-4-yl)-1H-pyrazol-4-yl)methyl)amino)-2-(2,6-dioxopiperidin-3-yl)isoindoline-1,3-dione] | < 100 |
| CC1(C(=O)N2CCC(n3cc(CNc4cccc5c4C(=O)N(C4CCC(=O)NC4=O)C5=O)c(Cl)n3)CC2)CCC1 (stereo not drawn) [Compound 191, 4-[[3-chloro-1-[1-(1-methylcyclobutanecarbonyl)-4-piperidyl]pyrazol-4-yl]methylamino]-2-(2,6-dioxo-3-piperidyl)isoindoline-1,3-dione] | < 1 |
| C#Cc1c(CNc2cccc3c2C(=O)N(C2CCC(=O)NC2=O)C3=O)cnn1C1CCN(C(=O)C2(C)CCC2)CC1 (stereo not drawn) [Compound 192, 2-(2,6-Dioxopiperidin-3-yl)-4-(((5-ethynyl-1-(1-(1-methylcyclobutane-1-carbonyl)piperidin-4-yl)-1H-pyrazol-4-yl)methyl)amino)isoindoline-1,3-dione] | < 100 |
| CC1(C(=O)N2CCC(n3ncc(CNc4cccc5c4C(=O)N(C4CCC(=O)NC4=O)C5=O)c3C#N)CC2)CCC1 (stereo not drawn) [Compound 194, 4-(((2-(2,6-Dioxopiperidin-3-yl)-1,3-dioxoisoindolin-4-yl)amino)methyl)-1-(1-(1-methylcyclobutane-1-carbonyl)piperidin-4-yl)-1H-pyrazole-5-carbonitrile] | < 100 |
| CC1(C)C[C@H](n2cc(CNc3cccc4c3C(=O)N(C3CCC(=O)NC3=O)C4=O)cn2)CCN1C(=O)C12C3C4C5C3C1C5C42 (stereo partly drawn) [Compound 196, 4-[[1-[(4R)-1-(Cubane-1-carbonyl)-2,2-dimethyl-4-piperidyl]pyrazol-4-yl]methylamino]-2-(2,6-dioxo-3-piperidyl)isoindoline-1,3-dione] | < 1 |
| CC1(C)C[C@@H](n2cc(CNc3cccc4c3C(=O)N(C3CCC(=O)NC3=O)C4=O)cn2)CCN1C(=O)C12C3C4C5C3C1C5C42 (stereo partly drawn) [Compound 197, 4-[[1-[(4S)-1-(Cubane-1-carbonyl)-2,2-dimethyl-4-piperidyl]pyrazol-4-yl]methylamino]-2-(2,6-dioxo-3-piperidyl)isoindoline-1,3-dione] | < 100 |
| CC(C)(C)OC(=O)N1CCC(n2cc(C(Nc3cccc4c3C(=O)N(C3CCC(=O)NC3=O)C4=O)c3cn(C4CCN(C(=O)OC(C)(C)C)CC4)nn3)nn2)CC1 (stereo not drawn) [Compound 203, tert-Butyl 4-[4-[[1-(1-tert-butoxycarbonyl-4-piperidyl)triazol-4-yl]-[[2-(2,6-dioxo-3-piperidyl)-1,3-dioxo-isoindolin-4-yl]amino]methyl]triazol-1-yl]piperidine-1-carboxylate] | > 100 |
| O=C1CCC(N2C(=O)c3cccc(NCc4cnn(C5CCN(CC6(C#CC7CC7)CCC6)CC5)c4)c3C2=O)C(=O)N1 (stereo not drawn) [Compound 204, 4-({1-[1-(1-Cyclopropylethynyl-cyclobutylmethyl)-piperidin-4-yl]-1H-pyrazol-4-ylme-thyl}-amino)-2-(2,6-dioxo-piperidin-3-yl)-isoindole-1,3-dione] | < 100 |
| O=C1CCC(N2C(=O)c3cccc(NCc4cnn(C5CCN(C(=O)C6(C#CC7CC7)CCC6)CC5)c4)c3C2=O)C(=O)N1 (stereo not drawn) [Compound 205, 4-({1-[1-(1-Cyclopropylethynyl-cyclobutanecarbonyl)-piperidin-4-yl]-1H-pyrazol-4-yl-methyl}-amino)-2-(2,6-dioxo-piperidin-3-yl)-isoindole-1,3-dione] | < 100 |
| CC1(C(=O)N2CCC(n3ncc4c3CCC4Nc3cccc4c3C(=O)N(C3CCC(=O)NC3=O)C4=O)CC2)CCC1 (stereo not drawn) [Compound 207, 2-(2,6-Dioxo-piperidin-3-yl)-4-{1-[1-(1-methyl-cyclobutanecarbonyl)-piperidin-4-yl]-1,4,5,6-tetrahydro-cyclopentapyrazol-4-ylamino}-isoindole-1,3-dione] | < 100 |

Source: US11753397B2, “Cereblon binders for the degradation of ikaros” (C4 Therapeutics, Inc., priority 2018, dated 2023)
